Test results published in patent US20240025922A1, “TETRAHYDROPYRIDO[3,4-d]PYRIMIDINES AS HPK1 INHIBITORS” (Merck Patent GmbH, priority 2022, published 2024).

Legend:
[1] = molecular target: full-length human HPK1 (MAP4K1) (Homo sapiens (Human), UniProt Q92918); assay: HPK1 Kinase Assay (Biochemical Assay), ADP-Glo; settings: GST-HPK1 3.2 nM, 10 μM ATP, MBP substrate, read-out: HPK1 enzymatic IC50
Source text: HPK1 Kinase Assay (Biochemical Assay).
A recombinant fusion protein consisting of full-length human HPK1 (MAP4K1) with an N-terminal Glutatione S-transferase (GST) tag was produced in insect cells Sf21 using the baculovirus expression system. GST-HPK1 protein was purified from cell lysates by glutathione Sepharose affinity chromatography. The assay is run in three continuous steps: 1) the HPK1 enzymatic kinase reaction, 2) an ATP depletion, and 3) the ADP detection, the steps 2 and 3 are performed with ADP-Glo™ Kinase Assay kit from Promega (V9101). Test compounds were prepared by 10-point serial dilution in dimethyl sulfoxide (DMSO) and 100 nL of each dilution was spotted onto a 384-well Optiplate (Perkin Elmer and Cat #6007299) by Labcyte Echo. 5 μL kinase reaction buffer (0.02% Brij-35, 2 mM DTT, 50 mM HEPES pH 7.5, MgCl2 10 mM, BSA 0.01% and O-glycerophosphate 12.5 mM) containing HPK1 (3.2 nM) enzyme was transferred to each well and incubated for 15 minutes at room temperature at 60% humidity. The enzymatic reaction was started by adding 5 μl of Start-Mix (10 μM ATP and 3.235 μM MBP). After 120 minutes, the reaction was stopped by adding 5 μL of ADP-Glo reagent (Promega, V9101) and incubating for 40 min. in the dark at 23° C. To determine the level of ADP, 10 μl ADP-Glo Detection solution was added and incubated for 1 hour at 23° C. in the dark. The plate was transferred to a Perkin Elmer EnVision (2104 Multilabel Reader) for luminescence detection and percent inhibition activity and IC50 value were determined using Genedata Screener.

[2] = molecular target: HPK1 (SLP76 phosphorylation at Ser376 in Jurkat and EL-4 cells) (Homo sapiens, UniProt Q92918); assay type: cell-based; settings: αCD3/αCD28 Dynabeads stimulated cells, pSLP76 (Ser376) detection; read-out: HPK1 pSLP76 IC50
Chain of HPK1 (SLP76 phosphorylation at Ser376 in Jurkat and EL-4 cells) (Q92918 whole entry, looked up): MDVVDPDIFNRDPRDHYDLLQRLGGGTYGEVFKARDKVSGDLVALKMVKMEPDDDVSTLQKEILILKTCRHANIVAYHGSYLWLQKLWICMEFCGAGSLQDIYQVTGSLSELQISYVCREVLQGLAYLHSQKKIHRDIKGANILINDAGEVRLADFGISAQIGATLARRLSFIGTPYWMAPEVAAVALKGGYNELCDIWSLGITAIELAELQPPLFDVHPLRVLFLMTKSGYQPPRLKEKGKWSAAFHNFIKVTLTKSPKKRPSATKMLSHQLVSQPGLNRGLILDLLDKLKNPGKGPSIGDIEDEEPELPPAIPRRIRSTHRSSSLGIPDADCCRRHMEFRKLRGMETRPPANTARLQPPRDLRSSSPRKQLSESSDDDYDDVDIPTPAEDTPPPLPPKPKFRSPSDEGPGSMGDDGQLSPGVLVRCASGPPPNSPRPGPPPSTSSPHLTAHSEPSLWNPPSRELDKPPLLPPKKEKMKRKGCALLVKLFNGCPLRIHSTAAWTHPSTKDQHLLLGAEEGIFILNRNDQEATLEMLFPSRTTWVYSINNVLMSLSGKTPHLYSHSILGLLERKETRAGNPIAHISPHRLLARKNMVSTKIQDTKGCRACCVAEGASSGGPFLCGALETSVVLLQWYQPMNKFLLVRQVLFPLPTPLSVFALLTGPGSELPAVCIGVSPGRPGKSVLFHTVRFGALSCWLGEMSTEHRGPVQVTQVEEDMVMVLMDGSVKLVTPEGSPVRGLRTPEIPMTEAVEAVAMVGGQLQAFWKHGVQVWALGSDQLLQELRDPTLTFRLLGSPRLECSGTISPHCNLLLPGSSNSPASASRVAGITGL
Description: Cellular Assay—Phospho-SLP-76 (Ser376).
Inhibition of HPK1 enzymatic activity in cells was determined by detection of SLP76 phosphorylation at Ser376 residue in lysate from Jurkat (human) and EL-4 (mouse) cells. Jurkat and EL-4 cells express both HPK1 and SLP76 naturally. All cells were cultured in RPMI 1640 media containing 10% heat inactivated fetal bovine serum (FBS) and 1×Penicillin-Streptomycin. In either Jurkat or El-4 assay, cells were pre-incubated with test compounds prior to T cell stimulation by respective αCD3/αCD28 Dynabeads™. For detection, plates were read on the Envision and percent inhibition and IC50 were determined by Smart fit in Genedata Analyzer.
For Jurkat cells: 35 μL cell suspension were dispensed at a density of 30,000 cells/well in 384-well plates containing HBSS (Gibco, 14025076)+0.1% BSA). 10-point logarithmic serial dilution of test compounds in DMSO were prepared by a Hamilton automated liquid handling robot and 35 nL was transferred into each well by an Echo liquid handler. After 60 min. pre-incubation, the cells were stimulated by adding 5 μL human T activator αCD3/αCD28 Dynabeads™ (Gibco, 11132D) at 1.2×107 beads/mL for 15 minutes at 37° C. Detection of Ser376 phosphorylation status was accomplished by first adding 10 μL of 5×AlphaLISA lysis buffer (Perkin Elmer, ALSU-PSLP-A500) to each well of the cell plate using a Multidrop Combi (5840300), followed by 20 minutes shaking. 10 μL cell lysate from each treatment were then transferred to a white 384-well plate (Corning 3572) and incubated with AlphaLISA acceptor beads for one hour (AlphaLISA SureFire Ultra p-SLP76(Ser376), Perkin Elmer, ALSU-PSLP-A500), and donor beads for additional 2 hours at room temperature in the dark.
For EL-4.IL2 assay, 50 μL cell suspension at 2×10^6 cells/mL in HBSS were first dispensed into 384-well plates and then 50 nL serial dilutions of test compounds were spotted to each well by an Echo liquid handler. After 60 min. incubation at 37° C., cells were stimulated by adding 5 μL mouse T cell activator αCD3/αCD28 Dynabeads™ (ThermFisher Scientific, 11452D) for 30 minutes at 37° C. After a brief spin and subsequent supernatant discarded, 12.5 μL of Cisbio lysis buffer were added to each well and plates were shaken for 30 min at 450 RPM. For detection, 4 μL prepared HTRF antibody mixture (Cisbio, 63ADK000U) in detection buffer were mixed with 16 μl of cell lysate and plates were incubated at room temperature for 19 hours prior to EnVision reading.

Chain of full-length human HPK1 (MAP4K1) (Q92918 whole entry): as the sequence (Q92918 whole entry, looked up) above

| SMILES | IC50 [1] [nM] | IC50 [2] [nM] |
| --- | --- | --- |
| Cc1cc(Nc2ncc3c(n2)CN(c2cnc4c(c2C)NCCO4)CC3)ccc1N(C)CCN1CCOCC1 [Example 17, N1,2-dimethyl-N4-(7-{8-methyl-1H,2H,3H-pyrido[2,3-b][1,4]oxazin-7-yl}-5H,6H,7H,8H-pyrido[3,4-d]pyrimidin-2-yl)-N1-[2-(morpholin-4-yl)ethyl]benzene-1,4-diamine; formic acid] | < 100 | 500 to 1000 |
| Cc1c(N2CCc3cnc(Nc4ccc(C5(S(C)(=O)=O)CC5)nc4)nc3C2)cnc2c1NCCO2 [Example 18, 6-(1-methanesulfonylcyclopropyl)-N-(7-{8-methyl-1H,2H,3H-pyrido[2,3-b][1,4]oxazin-7-yl}-5H,6H,7H,8H-pyrido[3,4-d]pyrimidin-2-yl)pyridin-3-amine] | < 100 | 500 to 1000 |
| Cc1c(N2CCc3cnc(Nc4cnc(CS(C)(=O)=O)c(F)c4)nc3C2)cnc2c1NCCO2 [Example 19, 5-fluoro-6-(methanesulfonylmethyl)-N-(7-{8-methyl-1H,2H,3H-pyrido[2,3-b][1,4]oxazin-7-yl}-5H,6H,7H,8H-pyrido[3,4-d]pyrimidin-2-yl)pyridin-3-amine] | < 100 | < 500 |
| Cc1c(N2CCc3cnc(Nc4ccc(C(C)(C)S(C)(=O)=O)nc4)nc3C2)cnc2c1NCCO2 [Example 20, 6-(2-methanesulfonylpropan-2-yl)-N-(7-{8-methyl-1H,2H,3H-pyrido[2,3-b][1,4]oxazin-7-yl}-5H,6H,7H,8H-pyrido[3,4-d]pyrimidin-2-yl)pyridin-3-amine] | < 100 | > 1000 |
| Cc1cc(Nc2ncc3c(n2)CN(c2cnc4c(c2C)NCCO4)CC3)cnc1CS(C)(=O)=O [Example 21, 6-(methanesulfonylmethyl)-5-methyl-N-(7-{8-methyl-1H,2H,3H-pyrido[2,3-b][1,4]oxazin-7-yl}-5H,6H,7H,8H-pyrido[3,4-d]pyrimidin-2-yl)pyridin-3-amine] | < 100 | 500 to 1000 |
| Cc1cc(Nc2ncc3c(n2)CN(c2cnc4c(c2C)NCCO4)CC3)ccc1NCCN1CCOCC1 [Example 23, 2-methyl-N4-(7-{8-methyl-1H,2H,3H-pyrido[2,3-b][1,4]oxazin-7-yl}-5H,6H,7H,8H-pyrido[3,4-d]pyrimidin-2-yl)-N1-[2-(morpholin-4-yl)ethyl]benzene-1,4-diamine] | < 100 | 500 to 1000 |
| Cc1c(N2CCc3cnc(Nc4ccc(S(C)(=O)=O)cc4)nc3C2)cnc2c1NCCO2 [Example 24, N-(4-methanesulfonylphenyl)-7-{8-methyl-1H,2H,3H-pyrido[2,3-b][1,4]oxazin-7-yl}-5H,6H,7H,8H-pyrido[3,4-d]pyrimidin-2-amine] | < 100 | 500 to 1000 |

Second part, the compound after the results:

| IC50 [1] [nM] | IC50 [2] [nM] | SMILES |
| --- | --- | --- |
| < 100 | < 500 | Cc1c(N2CCc3cnc(Nc4ccc(OCS(C)(=O)=O)cc4)nc3C2)cnc2c1NCCO2 [Example 25, N-[4-(methanesulfonylmethoxy)phenyl]-7-{8-methyl-1H,2H,3H-pyrido[2,3-b][1,4]oxazin-7-yl}-5H,6H,7H,8H-pyrido[3,4-d]pyrimidin-2-amine] |
| < 100 | 500 to 1000 | Cc1c(N2CCc3cnc(Nc4ccc(NCCN(C)C)nc4)cc3C2)cnc2c1NCCO2 [Example 26, N2-[2-(dimethylamino)ethyl]-N5-(6-{8-methyl-1H,2H,3H-pyrido[2,3-b][1,4]oxazin-7-yl}-5,6,7,8-tetrahydro-2,6-naphthyridin-3-yl)pyridine-2,5-diamine] |
| < 100 | 500 to 1000 | Cc1cc(Nc2cc3c(cn2)CCN(c2cnc4c(c2C)NCCO4)C3)ccc1C(=O)NCCN1CCOCC1 [Example 27, 2-methyl-4-[(6-{8-methyl-1H,2H,3H-pyrido[2,3-b][1,4]oxazin-7-yl}-5,6,7,8-tetrahydro-2,6-naphthyridin-3-yl)amino]-N-[2-(morpholin-4-yl)ethyl]benzamide] |
| < 100 | 500 to 1000 | Cc1cc(Nc2ncc3c(n2)CN(c2cnc4c(c2C)NCCO4)CC3)cnc1NCCN(C)C [Example 28, N2-[2-(dimethylamino)ethyl]-3-methyl-N5-(7-{8-methyl-1H,2H,3H-pyrido[2,3-b][1,4]oxazin-7-yl}-5H,6H,7H,8H-pyrido[3,4-d]pyrimidin-2-yl)pyridine-2,5-diamine] |
| < 100 | < 500 | Cc1c(N2CCc3cnc(Nc4ccc(NC(=O)CN5CCOCC5)c(C(F)(F)F)c4)nc3C2)cnc2c1NCCO2 [Example 29, N-{4-[(7-{8-methyl-1H,2H,3H-pyrido[2,3-b][1,4]oxazin-7-yl}-5H,6H,7H,8H-pyrido[3,4-d]pyrimidin-2-yl)amino]-2-(trifluoromethyl)phenyl}-2-(morpholin-4-yl)acetamide] |
| < 100 | < 500 | Cc1c(N2CCc3cnc(Nc4ccc5c(c4)CN(CC(C)(C)O)C5)nc3C2)cnc2c1NCCO2 [Example 30, 2-methyl-1-{5-[(7-{8-methyl-1H,2H,3H-pyrido[2,3-b][1,4]oxazin-7-yl}-5H,6H,7H,8H-pyrido[3,4-d]pyrimidin-2-yl)amino]-2,3-dihydro-1H-isoindol-2-yl}propan-2-ol] |
| < 100 | > 1000 | Cc1c(N2CCc3cnc(Nc4ccc(NC(=O)CN(C)C)nc4)cc3C2)cnc2c1NCCO2 [Example 31, 2-(dimethylamino)-N-{5-[(6-{8-methyl-1H,2H,3H-pyrido[2,3-b][1,4]oxazin-7-yl}-5,6,7,8-tetrahydro-2,6-naphthyridin-3-yl)amino]pyridin-2-yl}acetamide] |
| < 100 | > 1000 | Cc1c(N2CCc3cnc(Nc4ccc(NC(=O)CN5CCOCC5)nc4)cc3C2)cnc2c1NCCO2 [Example 32, N-{5-[(6-{8-methyl-1H,2H,3H-pyrido[2,3-b][1,4]oxazin-7-yl}-5,6,7,8-tetrahydro-2,6-naphthyridin-3-yl)amino]pyridin-2-yl}-2-(morpholin-4-yl)acetamide] |
| < 100 | > 1000 | Cc1cc(Nc2cc3c(cn2)CCN(c2cnc4c(c2C)NCCO4)C3)ccc1NC(=O)CN(C)C [Example 33, 2-(dimethylamino)-N-{2-methyl-4-[(6-{8-methyl-1H,2H,3H-pyrido[2,3-b][1,4]oxazin-7-yl}-5,6,7,8-tetrahydro-2,6-naphthyridin-3-yl)amino]phenyl}acetamide] |
| < 100 | < 500 | Cc1cc(Nc2cc3c(cn2)CCN(c2cnc4c(c2C)NCCO4)C3)ccc1NC(=O)CN1CCOCC1 [Example 34, N-{2-methyl-4-[(6-{8-methyl-1H,2H,3H-pyrido[2,3-b][1,4]oxazin-7-yl}-5,6,7,8-tetrahydro-2,6-naphthyridin-3-yl)amino]phenyl}-2-(morpholin-4-yl)acetamide] |
| < 100 | 500 to 1000 | Cc1cc(Nc2ncc3c(n2)CN(c2cnc4c(c2C)NCCO4)CC3)ccc1C(=O)NC1CN(C)C1 [Example 35, 2-methyl-4-[(7-{8-methyl-1H,2H,3H-pyrido[2,3-b][1,4]oxazin-7-yl}-5H,6H,7H,8H-pyrido[3,4-d]pyrimidin-2-yl)amino]-N-(1-methylazetidin-3-yl)benzamide] |
